Experimental data taken from ChEMBL document CHEMBL4334516, “Kinase Chemodiversity from the Arctic: The Breitfussins” (J Med Chem, 2019).
≈ marks a conversion by molar mass, not a printed value.

Legend:
[1] = Toxicity in zebrafish embryos assessed as induction of necrosis by measuring unaffected embryos level at 0.1 uM after 72 hrs (reference value: 100%); parameters: species or system Danio rerio; settings: in vivo
[2] = Toxicity in zebrafish embryos assessed as induction of scoliosis by measuring unaffected embryos level at 1.4 uM after 72 hrs (reference value: 100%); parameters: species or system Danio rerio; settings: in vivo
[3] = Toxicity in zebrafish embryos assessed as induction of scoliosis by measuring unaffected embryos level at 0.1 uM after 72 hrs (reference value: 100%); parameters: species or system Danio rerio; settings: in vivo
[4] = molecular target: Casein kinase I isoform epsilon (Homo sapiens, UniProt P49674); experiment: Binding affinity to wild-type human full length CSNK1E (M1 to K416 residues) expressed in bacterial expression system by active-site directed competition binding assay based Kinomescan method
[5] = molecular target: Myosin light chain kinase family member 4 (Homo sapiens, UniProt Q86YV6); experiment: Binding affinity to wild-type human partial length MYLK4 (V79 to S380 residues) expressed in bacterial expression system by active-site directed competition binding assay based Kinomescan method
[6] = test system: PLC-PRF-5; experiment: Cytotoxicity in human PLC/PRF/5 cells assessed as reduction in cell viability incubated for 72 hrs by SRB assay; settings: PLC-PRF-5, 72 h
[7] = test system: HT-29; experiment: Cytotoxicity in human HT-29 cells assessed as reduction in cell viability by MTS assay; type: functional, cell-based; settings: TDE = time-dependent effect
[8] = molecular target: Mitogen-activated protein kinase 15 (Homo sapiens) (UniProt Q8TD08); experiment: Binding affinity to wild-type human partial length ERK8 (M1 to P437 residues) expressed in bacterial expression system assessed as residual binding level at 10 uM by active-site directed competition binding assay based Kinomescan method relative to control
[9] = molecular target: NUAK family SNF1-like kinase 1 (Homo sapiens) (UniProt O60285); experiment: Inhibition of NUAK1 (unknown origin) by assessed as residual enzyme activity at 1 uM by [33P]-ATP filter binding kinase assay relative to control
[10] = molecular target: Interleukin-1 receptor-associated kinase 3 (Homo sapiens, UniProt Q9Y616); experiment: Binding affinity to wild-type human partial length IRAK3 (V147 to E596 residues) expressed in bacterial expression system by active-site directed competition binding assay based Kinomescan method
[11] = molecular target: Serine/threonine-protein kinase pim-3 (Homo sapiens, UniProt Q86V86); experiment: Binding affinity to wild-type human partial length PIM3 (G16 to A317 residues) expressed in bacterial expression system by active-site directed competition binding assay based Kinomescan method
[12] = molecular target: T1, Receptor-interacting serine/threonine-protein kinase 2 (Homo sapiens, UniProt O43353); experiment: Binding affinity to wild-type human partial length RIPK2 (M1 to K310 residues) expressed in bacterial expression system assessed as residual binding level at 10 uM by active-site directed competition binding assay based Kinomescan method relative to control
[13] = molecular target: BMP-2-inducible protein kinase (Homo sapiens, UniProt Q9NSY1); experiment: Binding affinity to wild-type human partial length BIKE (S34 to N329 residues) expressed in bacterial expression system by active-site directed competition binding assay based Kinomescan method
[14] = test system: HepG2; experiment: Cytotoxicity in human HepG2 cells assessed as reduction in cell viability incubated for 72 hrs by SRB assay; settings: HepG2, 72 h
[15] = molecular target: Serine/threonine-protein kinase 17A (Homo sapiens) (UniProt Q9UEE5); experiment: Binding affinity to wild-type human partial length DRAK1 (R32 to E363 residues) expressed in bacterial expression system assessed as residual binding level at 10 uM by active-site directed competition binding assay based Kinomescan method relative to control
[16] = test system: NCI-H460; experiment: Cytotoxicity in human NCI-H460 cells assessed as reduction in cell viability incubated for 72 hrs by SRB assay; settings: NCI-H460, 72 h
[17] = molecular target: T2, Serine/threonine-protein kinase 17B (Homo sapiens, UniProt O94768); experiment: Binding affinity to wild-type human full length DRAK2 (M1 to C372 residues) expressed in bacterial expression system by active-site directed competition binding assay based Kinomescan method
T2 sequence (O94768 whole entry): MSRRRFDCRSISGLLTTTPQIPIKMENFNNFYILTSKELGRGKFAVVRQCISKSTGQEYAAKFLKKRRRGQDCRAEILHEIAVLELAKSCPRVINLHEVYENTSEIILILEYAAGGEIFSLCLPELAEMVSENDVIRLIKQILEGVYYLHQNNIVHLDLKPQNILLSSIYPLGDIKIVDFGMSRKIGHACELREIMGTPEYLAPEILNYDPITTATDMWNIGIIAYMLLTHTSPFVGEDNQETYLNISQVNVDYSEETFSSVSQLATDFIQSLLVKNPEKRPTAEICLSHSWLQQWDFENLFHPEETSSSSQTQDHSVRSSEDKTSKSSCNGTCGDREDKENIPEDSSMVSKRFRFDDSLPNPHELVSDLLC

[18] = Toxicity in zebrafish embryos assessed as induction of tail degeneration by measuring unaffected embryos level at 14 uM after 72 hrs (reference value: 100%); type: tissue-based, Danio rerio; settings: in vivo
[19] = Cytotoxicity in human RD-ES cells assessed as reduction in cell viability incubated for 72 hrs by SRB assay
[20] = molecular target: Serine/threonine-protein kinase pim-1 (Homo sapiens, UniProt P11309); experiment: Binding affinity to wild-type human partial length PIM1 (A15 to K313 residues) expressed in bacterial expression system assessed as residual binding level at 10 uM by active-site directed competition binding assay based Kinomescan method relative to control
[21] = Kinetic solubility in pH 7.4 aqueous buffer at 500 uM by spectrophotometry; type: physicochemical; settings: read-out: Kinetic_solubility
[22] = molecular target: Mitogen-activated protein kinase kinase kinase 9 (Homo sapiens, UniProt P80192); experiment: Inhibition of MLK1 (unknown origin) assessed as residual enzyme activity at 50 uM by [33P]-ATP filter binding kinase assay relative to control
[23] = test system: Hs-578T; experiment: cells; settings: Homo sapiens, 72 h
[24] = molecular target: T1, Receptor-interacting serine/threonine-protein kinase 2; experiment: Inhibition of RIPK2 (unknown origin) assessed as residual enzyme activity at 50 uM by [33P]-ATP filter binding kinase assay relative to control
[25] = Toxicity in zebrafish embryos assessed as induction of general edema by measuring unaffected embryos level at 14 uM after 72 hrs (reference value: 100%); parameters: species or system Danio rerio; settings: in vivo
[26] = test system: PBMC; experiment: Cytotoxicity in human PBMC assessed as reduction in cell viability incubated for 72 hrs by SRB assay; type: cell-based
[27] = Toxicity in zebrafish embryos assessed as induction of heart edema by measuring unaffected embryos level at 0.1 uM after 72 hrs (reference value: 100%); type: tissue-based, Danio rerio; settings: in vivo
[28] = molecular target: 1-phosphatidylinositol 3-phosphate 5-kinase (Homo sapiens, UniProt Q9Y2I7); experiment: Binding affinity to wild-type human partial length PIKFYVE (F1512 to C2098 residues) expressed in mammalian expression system by active-site directed competition binding assay based Kinomescan method
[29] = molecular target: Testis-specific serine/threonine-protein kinase 1 (Homo sapiens) (UniProt Q9BXA7); experiment: Inhibition of TSSK1 (unknown origin) assessed as residual enzyme activity at 50 uM by [33P]-ATP filter binding kinase assay relative to control

With `COc1cc2c(-c3cnc(-c4ccc[nH]4)o3)c[nH]c2cc1Br` as the compound, how does the Activity [1] read?
Its Activity is 100%.

And the Activity [2]?
The Activity was 89%.

What about the Activity [3] of the same compound?
The Activity was 95%.

And the Kd [4]?
The Kd was 3.3 µM.

What about the Kd [5] of the same compound?
The Kd was 0.43 µM.

What about the IC50 [6] of the same compound?
Its IC50 is 1.5 µM.

And the Activity [7]?
The Activity was “Tde”.

What about the Activity [8] of the same compound?
The Activity was 67%.

And the Activity [9]?
Its Activity is 46%.

And the Kd [10]?
The Kd was 1.7 µM.

And the Kd [11]?
The Kd was 4.7 µM.

And the Activity [12]?
The Activity was 57%.

What about the Kd [13] of the same compound?
Its Kd is 1.1 µM.

What about the IC50 [14] of the same compound?
The IC50 was 3 µM.

What about the Activity [15] of the same compound?
Its Activity is 2.9%.

What about the IC50 [16] of the same compound?
The IC50 was 2 µM.

What about the Kd [17] of the same compound?
The Kd was 0.39 µM.

What about the Activity [18] of the same compound?
Its Activity is 0%.

What about the IC50 [19] of the same compound?
Its IC50 is 2.5 µM.

What about the Activity [20] of the same compound?
The Activity was 9.5%.

What about the solubility kinetic at 500 µM [21] of the same compound?
Its solubility kinetic at 500 µM is 156 µM (≈ 55.9 µg/mL).

And the Activity [22]?
The Activity was 5%.

And the IC50 [23]?
Its IC50 is 5.22 µM.

And the Activity [24]?
Its Activity is 10%.

What about the Activity [25] of the same compound?
The Activity was 100%.

What about the Activity [26] of the same compound?
Its Activity is “Non-Toxic”.

And the Activity [27]?
The Activity was 95%.

And the Kd [28]?
Its Kd is 1 µM.

For `COc1cc(Br)cc2[nH]cc(-c3oc(-c4ccc[nH]4)nc3I)c12`, which Activity [29] is on record?
The Activity was 21%.
